# Laboratory results taken from patent US20250326749A1, “COMPOUNDS, COMPOSITIONS, AND METHODS OF USING THEREOF” (Sionna Therapeutics Inc., priority 2022, published 2025).
# Biological target: T1, ΔF508-CFTR (Homo sapiens, UniProt P13569, DEL508-508)
# T1 construct: expressed in transfected cells; host or cells: CFSMEo- (human CF submucosal gland epithelial cells, ΔF508/Q2X), transiently transfected by nucleofection
# Test: ΔF508-CFTR-HRP trafficking assay (cell surface expression of ΔF508-CFTR)
# Assay type: cell-based
# Settings: CFSMEo- cells transiently transfected with ΔF508-CFTR-HRP; test agent 3 μM, 48 h; HRP chemiluminescence
# Summary of the method: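 Surface-expressed ΔF508-CFTR measured via extracellular HRP tag: cell-impermeable chemiluminescent substrate, 5 min, signal normalized to 0.3% DMSO vehicle.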
# T1 sequence (P13569 with tags, fused parts or gaps DEL508-508): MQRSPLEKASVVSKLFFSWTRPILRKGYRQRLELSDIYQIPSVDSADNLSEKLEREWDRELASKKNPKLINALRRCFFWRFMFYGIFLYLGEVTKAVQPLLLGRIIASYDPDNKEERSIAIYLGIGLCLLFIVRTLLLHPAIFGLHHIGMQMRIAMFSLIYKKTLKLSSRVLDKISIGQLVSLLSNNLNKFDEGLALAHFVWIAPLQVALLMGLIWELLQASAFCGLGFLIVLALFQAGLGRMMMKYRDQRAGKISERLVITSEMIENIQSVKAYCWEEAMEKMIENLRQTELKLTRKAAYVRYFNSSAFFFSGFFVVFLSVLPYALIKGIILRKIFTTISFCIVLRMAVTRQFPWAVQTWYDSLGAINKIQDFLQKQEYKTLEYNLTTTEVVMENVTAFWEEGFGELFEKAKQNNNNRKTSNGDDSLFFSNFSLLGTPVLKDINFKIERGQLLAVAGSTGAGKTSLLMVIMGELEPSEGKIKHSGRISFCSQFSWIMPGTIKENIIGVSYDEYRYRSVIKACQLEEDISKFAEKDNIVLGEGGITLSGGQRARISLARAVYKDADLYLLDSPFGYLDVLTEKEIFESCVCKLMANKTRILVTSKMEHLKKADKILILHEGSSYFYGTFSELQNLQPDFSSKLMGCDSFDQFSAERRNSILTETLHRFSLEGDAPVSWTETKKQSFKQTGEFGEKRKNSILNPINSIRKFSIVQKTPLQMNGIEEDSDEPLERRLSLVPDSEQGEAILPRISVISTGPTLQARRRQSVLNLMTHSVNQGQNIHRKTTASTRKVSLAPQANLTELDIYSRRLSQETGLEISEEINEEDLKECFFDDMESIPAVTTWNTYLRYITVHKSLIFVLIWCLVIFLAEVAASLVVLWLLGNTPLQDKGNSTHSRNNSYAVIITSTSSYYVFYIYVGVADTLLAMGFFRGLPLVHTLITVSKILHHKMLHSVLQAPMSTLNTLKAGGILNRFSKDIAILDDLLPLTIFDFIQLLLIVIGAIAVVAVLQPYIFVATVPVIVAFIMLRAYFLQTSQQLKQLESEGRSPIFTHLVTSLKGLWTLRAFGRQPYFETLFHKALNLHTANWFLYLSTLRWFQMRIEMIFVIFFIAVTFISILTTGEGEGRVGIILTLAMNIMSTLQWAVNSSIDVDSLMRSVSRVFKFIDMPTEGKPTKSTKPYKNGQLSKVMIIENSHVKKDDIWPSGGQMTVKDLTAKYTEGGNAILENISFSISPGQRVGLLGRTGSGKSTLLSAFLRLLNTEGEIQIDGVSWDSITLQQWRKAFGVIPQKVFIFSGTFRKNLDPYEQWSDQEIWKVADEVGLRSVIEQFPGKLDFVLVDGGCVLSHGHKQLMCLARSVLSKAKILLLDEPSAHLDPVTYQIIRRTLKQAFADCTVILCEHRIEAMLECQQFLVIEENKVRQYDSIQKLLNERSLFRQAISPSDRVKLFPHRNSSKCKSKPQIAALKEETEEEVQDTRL
row,RLUs: ΔF508-CFTR-HRP trafficking data normalized to the vehicle treated control (0.3% DMSO),Structure (SMILES)
1,A (RLU 5.0 μM-10 μM),"C[C@H](Nc1cc(-n2nc(C(F)(F)F)c3c2[C@@H](Oc2ccc(C(=O)O)cc2)CCC3)ccn1)c1ccc2c(c1)OC(F)(F)O2 (single isomer, unassigned) [Example 87]"
2,C (RLU 0.0 μM-3.5 μM),"CC[C@H](Nc1cc(-n2nc(C(F)(F)F)c3c2[C@@H](Oc2ccc(C(=O)O)cc2)CCC3)ccn1)c1ccc2c(c1)OC(F)(F)O2 (single isomer, unassigned) [Example 88]"
3,C (RLU 0.0 μM-3.5 μM),"CC(C)[C@H](Nc1cc(-n2nc(C(F)(F)F)c3c2[C@@H](Oc2ccc(C(=O)O)cc2)CCC3)ccn1)c1ccc2c(c1)OC(F)(F)O2 (single isomer, unassigned) [Example 89]"
4,C (RLU 0.0 μM-3.5 μM),"O=C(O)c1ccc(O[C@H]2CCCc3c(C(F)(F)F)nn(-c4ccnc(N[C@H](c5ccc6c(c5)OC(F)(F)O6)C5CC5)c4)c32)cc1 (single isomer, unassigned) [Example 90]"
5,A (RLU 5.0 μM-10 μM),"C[C@H](Nc1cccc(-n2nc(C(F)(F)F)c3c2[C@@H](Oc2ccc(C(=O)O)cc2)CCC3)n1)c1ccc2c(c1)OC(F)(F)O2 (single isomer, unassigned) [Example 91]"
6,B (RLU 3.5 μM-5.0 μM),"C[C@H](Nc1nc(-n2nc(C(F)(F)F)c3c2[C@@H](Oc2ccc(C(=O)O)cc2)CCC3)ccc1F)c1ccc2c(c1)OC(F)(F)O2 (single isomer, unassigned) [Example 92]"
7,A (RLU 5.0 μM-10 μM),"C[C@H](Nc1cc(-n2nc(C(F)(F)F)c3c2[C@@H](Nc2ccc(C(=O)O)cc2)CCC3)ccn1)c1ccc2c(c1)OC(F)(F)O2 (single isomer, unassigned) [Example 93]"
8,C (RLU 0.0 μM-3.5 μM),"C[C@H](Nc1cc(-n2nc(C(F)(F)F)c3c2[C@@H](OC24CC(C(=O)O)(C2)C4)CCC3)ccc1F)c1ccc2c(c1)OC(F)(F)O2 (single isomer, unassigned) [Example 95 (P1)]"
9,B (RLU 3.5 μM-5.0 μM),"C[C@H](Oc1cc(-n2nc(C#N)c3c2[C@@H](Oc2ccc(C(=O)O)cc2)CCC3)ccc1F)c1ccc2c(c1)OC(F)(F)O2 (single isomer, unassigned) [Example 104]"
10,A (RLU 5.0 μM-10 μM),"C[C@H](Oc1cc(-n2nc(C(F)(F)F)c3c2[C@@H](Nc2ccc(C(=O)O)cc2)CCC3)ccn1)c1ccc2c(c1)OC(F)(F)O2 (single isomer, unassigned) [Example 109]"
11,B (RLU 3.5 μM-5.0 μM),"C[C@H](Oc1cc(-n2nc(C(F)(F)F)c3c2[C@@H](Nc2ccc(C(=O)O)cc2)CCC3)ccn1)c1cc2c(cc1F)OC(F)(F)O2 (single isomer, unassigned) [Example 110]"

# The remaining lines, values behind:
row,Structure (SMILES),RLUs: ΔF508-CFTR-HRP trafficking data normalized to the vehicle treated control (0.3% DMSO)
1,"C[C@H](Oc1cnnc(-n2nc(C(F)(F)F)c3c2[C@@H](Oc2ccc(C(=O)O)cc2)CCC3)c1)c1ccc2c(c1)OC(F)(F)O2 (single isomer, unassigned) [Example 36h]",B (RLU 3.5 μM-5.0 μM)
2,"C[C@H](Oc1cc(-n2nc(C(F)(F)F)c3c2[C@@H](Oc2ccc(C(=O)O)cc2)CCC3)ncc1F)c1ccc2c(c1)OC(F)(F)O2 (single isomer, unassigned) [Example 36i]",A (RLU 5.0 μM-10 μM)
3,"C[C@H](Oc1cc(-n2nc(C(F)(F)F)c3c2[C@@H](Oc2ccc(C(=O)O)cc2)CCC3)ccc1F)c1cc2c(cc1F)OC(F)(F)O2 (single isomer, unassigned) [Example 36j]",C (RLU 0.0 μM-3.5 μM)
4,"CC[C@H](Oc1cc(-n2nc(C(F)(F)F)c3c2[C@@H](Oc2ccc(C(=O)O)cc2)CCC3)ccn1)c1ccc2c(c1)OC(F)(F)O2 (single isomer, unassigned) [Example 36k]",C (RLU 0.0 μM-3.5 μM)
5,"C[C@H](Oc1cccc(-n2nc(C(F)(F)F)c3c2[C@@H](Oc2ccc(C(=O)O)cc2)CCC3)n1)c1cc2c(cc1F)OC(F)(F)O2 (single isomer, unassigned) [Example 36l]",A (RLU 5.0 μM-10 μM)
6,"C[C@H](Oc1nc(-n2nc(C(F)(F)F)c3c2[C@@H](Oc2ccc(C(=O)O)cc2)CCC3)ccc1F)c1cc2c(cc1F)OC(F)(F)O2 (single isomer, unassigned) [Example 36m]",A (RLU 5.0 μM-10 μM)
7,"C[C@H](Oc1cccc(-n2nc(C(F)(F)F)c3c2C(OC24CC(C(=O)O)(C2)C4)CCC3)c1)c1ccc2c(c1)OC(F)(F)O2 (single isomer, unassigned) [Example 42]",A (RLU 5.0 μM-10 μM)
8,"C[C@@H](Oc1cc(-n2nc(C(F)(F)F)c3c2C(O[C@H]2CC[C@H](C(=O)O)CC2)CCC3)ccn1)c1ccc2c(c1)OC(F)(F)O2 (single isomer, unassigned) [Example 43]",A (RLU 5.0 μM-10 μM)
9,"C[C@H](Oc1cc(-n2nc(C(F)(F)F)c3c2C(O[C@H]2CC[C@H](C(=O)O)CC2)CCC3)ccn1)c1ccc2c(c1)OC(F)(F)O2 (single isomer, unassigned) [Example 44]",A (RLU 5.0 μM-10 μM)
10,"C[C@@H](Oc1cc(-n2nc(C(F)(F)F)c3c2C(O[C@H]2CC[C@H](C(=O)O)CC2)CCC3)ccn1)c1cc2c(cn1)OC(F)(F)O2 (single isomer, unassigned) [Example 47]",B (RLU 3.5 μM-5.0 μM)
11,"C[C@H](Oc1cc(-n2nc(C(F)(F)F)c3c2C(O[C@H]2CC[C@H](C(=O)O)CC2)CCC3)ccn1)c1cc2c(cn1)OC(F)(F)O2 (single isomer, unassigned) [Example 48]",C (RLU 0.0 μM-3.5 μM)
12,"C[C@H](Oc1cc(-n2nc(C(F)(F)F)c3c2[C@@H](O[C@H]2CC[C@H](C(=O)O)CC2)CCC3)cnn1)c1ccc2c(c1)OC(F)(F)O2 (single isomer, unassigned) [Example 55]",C (RLU 0.0 μM-3.5 μM)
13,"C[C@H](Oc1cc(-n2nc(C(F)(F)F)c3c2[C@H](O[C@H]2CC[C@H](C(=O)O)CC2)CCC3)cnn1)c1ccc2c(c1)OC(F)(F)O2 (single isomer, unassigned) [Example 56]",B (RLU 3.5 μM-5.0 μM)
14,"C[C@H](Oc1cncc(-n2nc(C(F)(F)F)c3c2[C@@H](OC24CCC(C(=O)O)(CC2)CC4)CCC3)c1)c1ccc2c(c1)OC(F)(F)O2 (single isomer, unassigned) [Example 57]",B (RLU 3.5 μM-5.0 μM)
15,"C[C@H](Oc1cncc(-n2nc(C(F)(F)F)c3c2[C@H](OC24CCC(C(=O)O)(CC2)CC4)CCC3)c1)c1ccc2c(c1)OC(F)(F)O2 (single isomer, unassigned) [Example 58]",B (RLU 3.5 μM-5.0 μM)
16,"C[C@H](Oc1cc(-n2nc(C(F)(F)F)c3c2[C@@H](OC24CCC(C(=O)O)(CC2)CC4)CCC3)cnc1F)c1ccc2c(c1)OC(F)(F)O2 (single isomer, unassigned) [Example 59]",C (RLU 0.0 μM-3.5 μM)
17,"C[C@H](Oc1cc(-n2nc(C(F)(F)F)c3c2[C@H](OC24CCC(C(=O)O)(CC2)CC4)CCC3)cnc1F)c1ccc2c(c1)OC(F)(F)O2 (single isomer, unassigned) [Example 60]",C (RLU 0.0 μM-3.5 μM)
18,"C[C@H](Oc1cc(-n2nc(C(F)(F)F)c3c2[C@@H](Oc2ccc(C(=O)O)cc2)CCC3)cnn1)c1ccc2c(c1)OC(F)(F)O2 (single isomer, unassigned) [Example 61]",C (RLU 0.0 μM-3.5 μM)
19,"C[C@H](Oc1cc(-n2nc(C(F)(F)F)c3c2[C@@H](OC24CC(C(=O)O)(C2)C4)CCC3)cnn1)c1ccc2c(c1)OC(F)(F)O2 (single isomer, unassigned) [Example 62]",C (RLU 0.0 μM-3.5 μM)
20,"C[C@H](Oc1cc(-n2nc(C(F)(F)F)c3c2[C@H](OC24CC(C(=O)O)(C2)C4)CCC3)cnn1)c1ccc2c(c1)OC(F)(F)O2 (single isomer, unassigned) [Example 63]",B (RLU 3.5 μM-5.0 μM)
21,"C[C@H](Oc1cc(-n2nc(C(F)(F)F)c3c2[C@@H](OC24CCC(C(=O)O)(CC2)CC4)CCC3)ccn1)c1ccc2c(c1)OC(F)(F)O2 (single isomer, unassigned) [Example 64]",A (RLU 5.0 μM-10 μM)
22,"C[C@H](Oc1cc(-n2nc(C(F)(F)F)c3c2[C@H](OC24CCC(C(=O)O)(CC2)CC4)CCC3)ccn1)c1ccc2c(c1)OC(F)(F)O2 (single isomer, unassigned) [Example 65]",C (RLU 0.0 μM-3.5 μM)
23,"C[C@H](Oc1cncc(-n2nc(C(F)(F)F)c3c2[C@@H](O[C@H]2CC[C@H](C(=O)O)CC2)CCC3)c1)c1ccc2c(c1)OC(F)(F)O2 (single isomer, unassigned) [Example 66]",A (RLU 5.0 μM-10 μM)
24,"C[C@H](Oc1cncc(-n2nc(C(F)(F)F)c3c2[C@H](O[C@H]2CC[C@H](C(=O)O)CC2)CCC3)c1)c1ccc2c(c1)OC(F)(F)O2 (single isomer, unassigned) [Example 67]",A (RLU 5.0 μM-10 μM)
25,"C[C@H](Oc1cc(-n2nc(C(F)(F)F)c3c2[C@@H](Oc2ccc(C(=O)O)cc2)CCC3)cnc1F)c1ccc2c(c1)OC(F)(F)O2 (single isomer, unassigned) [Example 68]",C (RLU 0.0 μM-3.5 μM)
